The text below walks through data of ChEMBL document CHEMBL6153050, “Repurposing FDA-approved drugs to target G-quadruplexes in breast cancer” (Eur J Med Chem, 2025).

The subject of assay [1] is Quadruplex RNA. Particulars: time 10.0 min.
In assay [2] the test system is Quadruplex DNA. Particulars: time 10.0 min.
In assay [3] the test system is Quadruplex RNA. The conditions noted are these: time 10.0 min. The source holds these as a separate data set.
In assay [4] the test system is Quadruplex DNA. The conditions noted are these: time 10.0 min. The source holds these as a separate data set.
Assay [5] has as its system Quadruplex DNA. The conditions noted are these: time 10.0 min. This is another data set of the same source.
Assay [6] deals with Quadruplex DNA. The conditions noted are these: time 10.0 min. This is another data set of the same source.
Assay [7] deals with MCF7. Nature of the assay: Cytotoxicity against human MCF7 cells assessed as reduction in cell viability at 0.625 to 20 uM incubated for 6 days by SRB assay. It is filed as functional, cell-based. Particulars: dose 0.625-20 µM, time 6.0 day. For orientation: In SRB staining, fixed cells bind dye roughly in proportion to their protein.
In assay [8] the test system is Quadruplex DNA. Nature of the assay: Stabilization of G4 quadruplex DNA (unknown origin) in human MDA-MB-231 cells assessed as increase in G4 motif at IC50 concentration incubated for 6 days by flow cytometric analysis. It is filed as cell-based. The conditions noted are these: time 6.0 day. (Flow cytometry measures light scatter and fluorescence of single cells or particles in a stream.)

Assay [9] deals with MDA-MB-231. Nature of the assay: Induction of DNA damage in human MDA-MB-231 cells assessed as increase in gamma-H2AX level at IC50 concentration incubated for 6 days by flow cytometric analysis. Type of assay: functional, cell-based. The conditions noted are these: time 6.0 day.
Assay [10] has as its system MDA-MB-231. Nature of the assay: Effect on cell cycle arrest in human MDA-MB-231 cells at IC25 concentration incubated for 6 days by PI staining based flow cytometric analysis. It is filed as functional. The conditions noted are these: time 6.0 day.
In assay [11] the test system is Quadruplex DNA. Nature of the assay: Stabilization of G4 quadruplex DNA (unknown origin) in human MCF7 cells at IC50 concentration incubated for 6 days by flow cytometric analysis. It is filed as cell-based. The conditions noted are these: time 6.0 day.
Assay [12] concerns MCF7. Nature of the assay: Effect on cell cycle arrest in human MCF7 cells at IC25 concentration incubated for 6 days by PI staining based flow cytometric analysis. Particulars: time 6.0 day. It is filed as functional.
The test system of assay [13] is MDA-MB-231. Nature of the assay: Effect on cell cycle arrest in human MDA-MB-231 cells at IC50 concentration incubated for 6 days by PI staining based flow cytometric analysis. It is filed as functional. Particulars: time 6.0 day.
The subject of assay [14] is MCF7. Nature of the assay: Cytotoxicity against human MCF7 cells assessed as reduction in cell viability incubated for 6 days by SRB assay. Type of assay: functional, cell-based. The conditions noted are these: Homo sapiens, MCF7, 144 h; for IC25: time 6 day, read-out: IC25.
Assay [15] deals with MCF7. Nature of the assay: Effect on cell cycle arrest in human MCF7 cells at IC50 concentration incubated for 6 days by PI staining based flow cytometric analysis. Type of assay: functional. Particulars: time 6.0 day.
Assay [16] has as its system MDA-MB-231. Nature of the assay: Cytotoxicity against human MDA-MB-231 cells assessed as reduction in cell viability incubated for 6 days by SRB assay. Particulars: Homo sapiens, MDA-MB-231, 144 h; for IC25: time 6 day, read-out: IC25. It is filed as functional, cell-based.
The test system of assay [17] is SK-BR-3. Nature of the assay: Cytotoxicity against human SK-BR-3 cells assessed as reduction in cell viability at 20 uM incubated for 6 days by SRB assay. The conditions noted are these: time 6.0 day. Type of assay: functional, cell-based.
Assay [18] deals with MCF7. Nature of the assay: Induction of DNA damage in human MCF7 cells assessed as increase in gamma-H2AX level at IC50 concentration incubated for 6 days by flow cytometric analysis. The conditions noted are these: time 6.0 day. Type of assay: functional, cell-based.
Assay [19] relates to MDA-MB-231. Nature of the assay: Cytotoxicity against human MDA-MB-231 cells assessed as reduction in cell viability at 20 uM incubated for 6 days by SRB assay. It is filed as functional, cell-based. Particulars: time 6.0 day.
The test system of assay [20] is Quadruplex DNA. Nature of the assay: Stabilization of G4 quadruplex DNA (unknown origin) in human MCF7 cells at IC25 concentration incubated for 6 days by flow cytometric analysis. It is filed as cell-based. The conditions noted are these: time 6.0 day.
Assay [21] has as its system MCF7. Nature of the assay: Induction of DNA damage in human MCF7 cells assessed as increase in gamma-H2AX level at IC25 concentration incubated for 6 days by flow cytometric analysis. It is filed as functional, cell-based. The conditions noted are these: time 6.0 day.
The test system of assay [22] is Quadruplex DNA. Nature of the assay: Stabilization of G4 quadruplex DNA (unknown origin) in human MDA-MB-231 cells at IC50 concentration incubated for 6 days by flow cytometric analysis. Type of assay: cell-based. Particulars: time 6.0 day.
Assay [23] has as its system Quadruplex DNA. Nature of the assay: Stabilization of G4 quadruplex DNA (unknown origin) in human MDA-MB-231 cells at IC25 concentration incubated for 6 days by flow cytometric analysis. Type of assay: cell-based. Particulars: time 6.0 day.
For assay [24], the system named is MDA-MB-231. Nature of the assay: Induction of DNA damage in human MDA-MB-231 cells assessed as increase in gamma-H2AX level at IC25 concentration incubated for 6 days by flow cytometric analysis. Type of assay: functional, cell-based. Particulars: time 6.0 day.

Active and inactive are the calls of the source. The calls are words filed in the database; no cut-off is given here.

`Cc1cc2ncc(C(=O)NCC(C)(C)NCC(=O)N3CCC[C@H]3C#N)cn2n1`: the deltaTm1/2 in assay [1] was 1.9 °C; in [2], -0.1 °C; in [3], 0.4 °C; in assay [4], 5.4 °C; in assay [5] it was -0.9 °C; in [6] it was 3.1 °C.
Regarding `N[C@@H]1CCCCN(c2c(F)cc3c(=O)c(C(=O)O)cn(C4CC4)c3c2Cl)C1`, the deltaTm1/2 in assay [1] was 2.8 °C; in [2], 1.3 °C; in [3], 1.7 °C; in assay [4], 1.7 °C; in assay [5], -0.3 °C; in [6] it was 4.9 °C.
As for `CN1CCC[C@@H]1Cc1c[nH]c2ccc(CCS(=O)(=O)c3ccccc3)cc12`, the deltaTm1/2 was found to be 4.5 °C in [1]; 0.6 °C in [2]; 0.8 °C in assay [3]; 5.2 °C in [4]; 4 °C in assay [5]; 6 °C in assay [6]. Besides, in [7], the outcome was Active.
As to `CCc1cc2c(cc1N1CCC(N3CCOCC3)CC1)C(C)(C)c1[nH]c3cc(C#N)ccc3c1C2=O`, the deltaTm1/2 in assay [1] is 4.6 °C; in [2], 0 °C; in [3], 1.1 °C; in [4] it was -3.3 °C; in assay [5], -1.1 °C; in [6] it was 2.5 °C.
As for `COc1cc(NC(C)CCCN)c2ncccc2c1` (stereo not given), the deltaTm1/2 in [1] was 4.2 °C; in assay [2] it was 0.4 °C; in assay [3], 0.3 °C; in [4], -2.6 °C; in assay [5] it was 3.7 °C; in [6], 3.6 °C.
A word on the IC50: it is the midpoint of a concentration-inhibition curve. One may read the IC25 as the concentration needed for an effect of 25%. Take `CN1CCCC(n2nc(Cc3ccc(Cl)cc3)c3ccccc3c2=O)CC1` (stereo not given) [AZELASTINE]: the deltaTm1/2 came out at 9.6 °C in [1]; 7.7 °C in assay [2]; 2.3 °C in [3]; 5.3 °C in assay [4]; 8.1 °C in assay [5]; 17.1 °C in assay [6]. The outcome in assay [8], in [11], in assay [17], in assay [18] and in assay [19] was Active. The outcome in assay [9], in assay [10], in [12], in assay [13] and in assay [15] was inactive. Further, the figures for the IC50 in [14] and in assay [16] were 10.3 µM and 8.2 µM, respectively. Further, the IC25 in assay [14] turned out to be 5.8 µM; in assay [16], 5.2 µM.
As to `CCN(CC)CCCC(C)Nc1c2ccc(Cl)cc2nc2ccc(OC)cc12` (stereo not given), the deltaTm1/2 is over 20 °C in [1]; over 20 °C in [2]; 15.4 °C in assay [3]; 18.5 °C in assay [4]; over 20 °C in assay [5]; over 20 °C in [6].
For `CCCCOc1cc(C(=O)NCCN(CC)CC)c2ccccc2n1`, the deltaTm1/2 was found to be 3.2 °C in assay [1]; 0.2 °C in assay [2]; 1 °C in [3]; 4.4 °C in assay [4]; 2.8 °C in [5]; 5.4 °C in assay [6].
In the case of `Cn1nnc(-c2ccc(-c3ccc(N4C[C@H](CO)OC4=O)cc3F)cn2)n1`, the deltaTm1/2 in assay [1] came out at 1 °C; in assay [2] it was 1.2 °C; in [3], 1.2 °C; in assay [4] it was 1 °C; in [5] it was 2.3 °C; in assay [6], 3 °C.
As to `COc1c(-c2ccc3cc(NS(C)(=O)=O)ccc3c2)cc(-n2ccc(=O)[nH]c2=O)cc1C(C)(C)C`, the deltaTm1/2 in assay [1] is 2.6 °C; in assay [2], -0.4 °C; in assay [3], -0.3 °C; in assay [4], 4.5 °C; in assay [5], -0.7 °C; in assay [6], 1.4 °C.
For `CCn1cc(C(=O)O)c(=O)c2cc(F)c(N3CCN(C)CC3)cc21`, the deltaTm1/2 in assay [1] stood at 9.8 °C; in assay [2], 4.6 °C; in assay [3], 3.3 °C; in assay [4] it was 4.5 °C; in assay [5] it was 1 °C; in assay [6], 8 °C.
In the case of `CONC(=O)Nc1ccc(-c2sc3c(c2CN(C)C)c(=O)n(-c2ccc(OC)nn2)c(=O)n3Cc2c(F)cccc2F)cc1`, the deltaTm1/2 in assay [1] is 9.7 °C; in assay [2], 2.4 °C; in assay [3], -0.2 °C; in assay [4] it was 1.9 °C; in assay [5], 4.3 °C; in assay [6], 9.8 °C.
In the case of `CCc1cc2c(cc1CC)CC(NC[C@H](O)c1ccc(O)c3[nH]c(=O)ccc13)C2` [INDACATEROL], the deltaTm1/2 was 4.9 °C in [1]; 1.5 °C in [2]; 0.6 °C in assay [3]; 5.8 °C in assay [4]; 4 °C in [5]; 6.2 °C in assay [6]. Also, in assay [14], the IC50 was 7.4 µM. In addition, the IC25 in [14] came to 4.3 µM.
Consider `COc1cc(O)c(C(=O)Nc2nc(C(=O)NCCN(C(C)C)C(C)C)cs2)cc1OC`, for which the deltaTm1/2 in assay [1] turned out to be 7.5 °C; in assay [2] it was 3.9 °C; in [3] it was 3.5 °C; in assay [4], 4.4 °C; in assay [5], 9.4 °C; in assay [6] it was 9.5 °C.
For `O=C(c1ccc(OCCN2CCCCC2)cc1)c1c(-c2ccc(O)cc2)sc2cc(O)ccc12` [RALOXIFENE], the deltaTm1/2 in [1] is 6.3 °C; in assay [2], 4 °C; in assay [3], 1.6 °C; in [4], 3.2 °C; in assay [5], 7.8 °C; in assay [6] it was 11 °C. Also, the result in [9], in assay [20], in assay [10], in assay [11], in assay [12] and in assay [21] was inactive. Also, the outcome in [13], in [22], in [15], in assay [23], in assay [18] and in assay [24] was inactive. Besides, the values for the IC50 in assay [14] and in assay [16] were 2.7 µM and 10.3 µM, respectively. Besides, the results for the IC25 in [14] and in assay [16] were 0.63 µM and 8.2 µM, respectively.
For `COc1ccc(-c2cc(=O)c3c(OC)c(OC)c(OC)cc3o2)cc1OC`, the deltaTm1/2 in assay [1] is 8.1 °C; in assay [2], 1.5 °C; in assay [3], 1.1 °C; in assay [4] it was 4 °C; in [5] it was 5.3 °C; in assay [6] it was 10.6 °C.
Regarding `CN(C)CCCOc1nn(Cc2ccccc2)c2ccccc12`, the deltaTm1/2 worked out at 5.1 °C in assay [1]; 2.5 °C in [2]; 0.3 °C in assay [3]; 3 °C in assay [4]; 1.1 °C in [5]; 8.4 °C in assay [6].
